In PubChem BioAssay AID1745844 (Carcinogenic Potency Database (CPDB), 2022):
Active and inactive are the calls of the source. How the calls were made is not given here.

System: rodent lifetime carcinogenesis bioassay, tumor incidence TD50
Assay: carcinogenic potency in animals, long-term in vivo studies, CPDB compilation (AID 1745844)

CCCCCCN(N=O)C(N)=O
TD50 (rat, strain Fischer 344, females, by gavage, site: forestomach, lesion: one or several types, types not named, dosed 50 weeks, study length 104 weeks): 0.848 mg/kg/day
TD50 (rat, strain Fischer 344, females, by gavage, site: lung, lesion: several types, types named in the paper, dosed 50 weeks, study length 104 weeks): 2.06 mg/kg/day
TD50 (rat, strain Fischer 344, females, by gavage, site: mammary gland, lesion: adenocarcinoma, dosed 50 weeks, study length 104 weeks): 1.73 mg/kg/day
TD50 (rat, strain Fischer 344, females, by gavage, site: uterus, lesion: several types, types named in the paper, dosed 50 weeks, study length 104 weeks): 0.579 mg/kg/day
TD50 (rat, strain Fischer 344, males, by gavage, site: all sites, lesion: mesothelioma, dosed 50 weeks, study length 104 weeks): 0.745 mg/kg/day
TD50 (rat, strain Fischer 344, males, by gavage, site: colon, lesion: one or several types, types not named, dosed 50 weeks, study length 104 weeks): 2.27 mg/kg/day
carcinogen call (rat, strain Fischer 344, males, by gavage, site: forestomach, lesion: one or several types, types not named, dosed 50 weeks, study length 104 weeks): positive
carcinogen call (rat, strain Fischer 344, males, by gavage, site: lung, lesion: several types, types named in the paper, dosed 50 weeks, study length 104 weeks): positive

CN(C)N=Nc1ccccc1
TD50 (rat, strain BD, both sexes, by gavage, site: any site (literature study), lesion: malignant tumor, dosed 104 weeks, study length 104 weeks): 2.31 mg/kg/day
TD50 (rat, strain BD, both sexes, by gavage, site: brain, lesion: several types, types named in the paper, dosed 104 weeks, study length 104 weeks): 5.81 mg/kg/day

Brc1cc(Br)c(-c2cc(Br)c(Br)cc2Br)cc1Br
TD50 (mouse, strain B6C3F1, females, by gavage, site: any site (literature study), lesion: several types, types named in the paper, dosed 26 weeks, study length 131 weeks): 0.338 mg/kg/day
TD50 (mouse, strain B6C3F1, females, by gavage, site: liver, lesion: hepatocellular adenoma + hepatocellular carcinoma + neoplastic nodule, dosed 26 weeks, study length 131 weeks): 0.402 mg/kg/day
TD50 (mouse, strain B6C3F1, females, by gavage, site: liver, lesion: hepatocellular carcinoma, dosed 26 weeks, study length 131 weeks): 0.534 mg/kg/day
TD50 (mouse, strain B6C3F1, females, by gavage, site: lung, lesion: alveolar/bronchiolar adenoma + alveolar/bronchiolar carcinoma, dosed 26 weeks, study length 131 weeks): 0.915 mg/kg/day
TD50 (mouse, strain B6C3F1, females, in feed, site: any site (literature study), lesion: several types, types named in the paper, dosed 105 weeks, study length 105 weeks): 0.362 mg/kg/day
TD50 (mouse, strain B6C3F1, females, in feed, site: liver, lesion: hepatocellular adenoma + hepatoblastoma + hepatocellular carcinoma, dosed 105 weeks, study length 105 weeks): 0.307 mg/kg/day
TD50 (mouse, strain B6C3F1, females, in feed, site: liver, lesion: hepatocellular adenoma + hepatocellular carcinoma, dosed 105 weeks, study length 105 weeks): 0.307 mg/kg/day
TD50 (mouse, strain B6C3F1, females, in feed, site: liver, lesion: hepatocellular adenoma, dosed 105 weeks, study length 105 weeks): 0.367 mg/kg/day
TD50 (mouse, strain B6C3F1, females, in feed, site: liver, lesion: hepatocellular carcinoma, dosed 105 weeks, study length 105 weeks): 0.588 mg/kg/day
TD50 (mouse, strain B6C3F1, females, in feed, site: lung, lesion: alveolar/bronchiolar adenoma + alveolar/bronchiolar carcinoma, dosed 105 weeks, study length 105 weeks): 19.1 mg/kg/day
TD50 (mouse, strain B6C3F1, males, by gavage, site: any site (literature study), lesion: several types, types named in the paper, dosed 26 weeks, study length 131 weeks): 0.418 mg/kg/day
TD50 (mouse, strain B6C3F1, males, by gavage, site: liver, lesion: hepatocellular adenoma + hepatocellular carcinoma + neoplastic nodule, dosed 26 weeks, study length 131 weeks): 0.285 mg/kg/day
TD50 (mouse, strain B6C3F1, males, by gavage, site: liver, lesion: hepatocellular carcinoma, dosed 26 weeks, study length 131 weeks): 0.381 mg/kg/day
TD50 (mouse, strain B6C3F1, males, in feed, site: any site (literature study), lesion: several types, types named in the paper, dosed 105 weeks, study length 105 weeks): 0.349 mg/kg/day
TD50 (mouse, strain B6C3F1, males, in feed, site: liver, lesion: hepatocellular adenoma + hepatoblastoma + hepatocellular carcinoma, dosed 105 weeks, study length 105 weeks): 0.262 mg/kg/day
TD50 (mouse, strain B6C3F1, males, in feed, site: liver, lesion: hepatocellular adenoma + hepatocellular carcinoma, dosed 105 weeks, study length 105 weeks): 0.262 mg/kg/day
TD50 (mouse, strain B6C3F1, males, in feed, site: liver, lesion: hepatocellular adenoma, dosed 105 weeks, study length 105 weeks): 0.233 mg/kg/day
TD50 (mouse, strain B6C3F1, males, in feed, site: liver, lesion: hepatocellular carcinoma, dosed 105 weeks, study length 105 weeks): 0.54 mg/kg/day
TD50 (mouse, strain B6C3F1, males, in feed, site: lung, lesion: alveolar/bronchiolar adenoma + alveolar/bronchiolar carcinoma, dosed 105 weeks, study length 105 weeks): 54.9 mg/kg/day
TD50 (rat, strain Fischer 344, females, by gavage, site: any site (literature study), lesion: several types, types named in the paper, dosed 25 weeks, study length 124 weeks): 0.365 mg/kg/day
TD50 (rat, strain Fischer 344, females, by gavage, site: liver, lesion: cholangiocarcinoma + hepatocellular carcinoma + neoplastic nodule, dosed 25 weeks, study length 124 weeks): 0.596 mg/kg/day
TD50 (rat, strain Fischer 344, females, by gavage, site: liver, lesion: cholangiocarcinoma, dosed 25 weeks, study length 124 weeks): 2.1 mg/kg/day
TD50 (rat, strain Fischer 344, females, by gavage, site: liver, lesion: hepatocellular adenoma + hepatocellular carcinoma + neoplastic nodule, dosed 25 weeks, study length 124 weeks): 0.645 mg/kg/day
TD50 (rat, strain Fischer 344, females, by gavage, site: liver, lesion: hepatocellular carcinoma, dosed 25 weeks, study length 124 weeks): 1.65 mg/kg/day
TD50 (rat, strain Fischer 344, females, by gavage, site: liver, lesion: neoplastic nodule, dosed 25 weeks, study length 124 weeks): 1.1 mg/kg/day
TD50 (rat, strain Fischer 344, females, in feed, site: any site (literature study), lesion: several types, types named in the paper, dosed 104 weeks, study length 104 weeks): 2.38 mg/kg/day
TD50 (rat, strain Fischer 344, females, in feed, site: liver, lesion: hepatocellular adenoma + hepatoblastoma + hepatocellular carcinoma, dosed 104 weeks, study length 104 weeks): 0.656 mg/kg/day
TD50 (rat, strain Fischer 344, females, in feed, site: liver, lesion: hepatocellular adenoma + hepatocellular carcinoma, dosed 104 weeks, study length 104 weeks): 0.656 mg/kg/day
TD50 (rat, strain Fischer 344, females, in feed, site: liver, lesion: hepatocellular adenoma, dosed 104 weeks, study length 104 weeks): 0.7 mg/kg/day
TD50 (rat, strain Fischer 344, females, in feed, site: liver, lesion: hepatocellular carcinoma, dosed 104 weeks, study length 104 weeks): 8.22 mg/kg/day
TD50 (rat, strain Fischer 344, females, in feed, site: mammary gland, lesion: fibroadenoma, dosed 104 weeks, study length 104 weeks): 1.59 mg/kg/day
TD50 (rat, strain Fischer 344, males, by gavage, site: any site (literature study), lesion: several types, types named in the paper, dosed 25 weeks, study length 118 weeks): 0.0645 mg/kg/day
TD50 (rat, strain Fischer 344, males, by gavage, site: liver, lesion: cholangiocarcinoma + hepatocellular carcinoma + neoplastic nodule, dosed 25 weeks, study length 118 weeks): 0.148 mg/kg/day
TD50 (rat, strain Fischer 344, males, by gavage, site: liver, lesion: cholangiocarcinoma, dosed 25 weeks, study length 118 weeks): 14.4 mg/kg/day
TD50 (rat, strain Fischer 344, males, by gavage, site: liver, lesion: hepatocellular adenoma + hepatocellular carcinoma + neoplastic nodule, dosed 25 weeks, study length 118 weeks): 0.151 mg/kg/day
TD50 (rat, strain Fischer 344, males, by gavage, site: liver, lesion: hepatocellular carcinoma, dosed 25 weeks, study length 118 weeks): 1.3 mg/kg/day
TD50 (rat, strain Fischer 344, males, by gavage, site: liver, lesion: neoplastic nodule, dosed 25 weeks, study length 118 weeks): 0.168 mg/kg/day
TD50 (rat, strain Fischer 344, males, in feed, site: any site (literature study), lesion: several types, types named in the paper, dosed 104 weeks, study length 104 weeks): 1.56 mg/kg/day
TD50 (rat, strain Fischer 344, males, in feed, site: liver, lesion: hepatocellular adenoma + hepatoblastoma + hepatocellular carcinoma, dosed 104 weeks, study length 104 weeks): 0.408 mg/kg/day
TD50 (rat, strain Fischer 344, males, in feed, site: liver, lesion: hepatocellular adenoma + hepatocellular carcinoma, dosed 104 weeks, study length 104 weeks): 0.408 mg/kg/day
TD50 (rat, strain Fischer 344, males, in feed, site: liver, lesion: hepatocellular adenoma, dosed 104 weeks, study length 104 weeks): 0.461 mg/kg/day
TD50 (rat, strain Fischer 344, males, in feed, site: liver, lesion: hepatocellular carcinoma, dosed 104 weeks, study length 104 weeks): 1.19 mg/kg/day

O=S(=O)(O)c1cc(S(=O)(=O)O)c2c(N=Nc3ccccc3)c(O)ccc2c1
carcinogen call (mouse, strain B6C3F1, females, in feed, site: any site (literature study), lesion: several types, types named in the paper, dosed 103 weeks, study length 104 weeks): negative (inactive)
carcinogen call (mouse, strain B6C3F1, males, in feed, site: any site (literature study), lesion: several types, types named in the paper, dosed 103 weeks, study length 103 weeks): negative (inactive)
TD50 (mouse, strain B6C3F1, males, in feed, site: lung, lesion: alveolar/bronchiolar adenoma + alveolar/bronchiolar carcinoma, dosed 103 weeks, study length 103 weeks): 22000 mg/kg/day
carcinogen call (rat, strain Fischer 344, females, in feed, site: any site (literature study), lesion: several types, types named in the paper, dosed 103 weeks, study length 104 weeks): negative (inactive)
TD50 (rat, strain Fischer 344, males, in feed, site: any site (literature study), lesion: several types, types named in the paper, dosed 103 weeks, study length 104 weeks): 2710 mg/kg/day
TD50 (rat, strain Fischer 344, males, in feed, site: liver, lesion: hepatocellular adenoma + hepatocellular carcinoma + neoplastic nodule, dosed 103 weeks, study length 104 weeks): 620 mg/kg/day
TD50 (rat, strain Fischer 344, males, in feed, site: tunica vaginalis, lesion: mesothelioma, NOS + mesothelioma, malignant, dosed 103 weeks, study length 104 weeks): 915 mg/kg/day (inactive)

CCCN(N=O)C(N)=O
carcinogen call (rat, strain F344/DuCrj, females, in drinking water, site: thymus gland, lesion: lymphoma, dosed 70 weeks, study length 70 weeks): positive
carcinogen call (rat, strain F344/DuCrj, females, in drinking water, site: thymus gland, lesion: lymphoma, dosed 75 weeks, study length 75 weeks): positive
carcinogen call (rat, strain F344/DuCrj, males, in drinking water, site: thymus gland, lesion: lymphoma, dosed 70 weeks, study length 70 weeks): positive
carcinogen call (rat, strain F344/DuCrj, males, in drinking water, site: thymus gland, lesion: lymphoma, dosed 75 weeks, study length 75 weeks): positive

Cc1cc(C)c(S(=O)(=O)O)cc1N=Nc1cc(S(=O)(=O)O)c2ccccc2c1O
TD50 (dog, strain Beagle, females, in feed, site: adrenal gland, lesion: medullary adenoma, dosed 365 weeks, study length 365 weeks): 316 mg/kg/day
TD50 (dog, strain Beagle, females, in feed, site: any site (literature study), lesion: several types, types named in the paper, dosed 365 weeks, study length 365 weeks): 670 mg/kg/day
TD50 (dog, strain Beagle, females, in feed, site: mammary gland, lesion: adenocarcinoma, dosed 365 weeks, study length 365 weeks): 316 mg/kg/day (inactive)
carcinogen call (mouse, strain C3HeB/Jax, both sexes, in feed, site: any site (literature study), lesion: several types, types named in the paper, dosed 104 weeks, study length 104 weeks): negative (inactive)
carcinogen call (mouse, strain C3HeB/Jax, both sexes, in feed, site: liver, lesion: hepatoma, dosed 104 weeks, study length 104 weeks): negative (inactive)
TD50 (mouse, strain C57BL/He, both sexes, in feed, site: any site (literature study), lesion: several types, types named in the paper, dosed 104 weeks, study length 104 weeks): 20300 mg/kg/day (inactive)
TD50 (mouse, strain C57BL/He, both sexes, in feed, site: liver, lesion: hepatoma, dosed 104 weeks, study length 104 weeks): 57100 mg/kg/day (inactive)
TD50 (rat, strain Non-inbred, both sexes, in feed, site: any site (literature study), lesion: several types, types named in the paper, dosed 143 weeks, study length 143 weeks): 12000 mg/kg/day
TD50 (rat, strain Non-inbred, both sexes, in feed, site: liver, lesion: hepatoma, dosed 143 weeks, study length 143 weeks): 49500 mg/kg/day
TD50 (rat, strain Osborne-Mendel, both sexes, in feed, site: all sites, lesion: fibrosarcoma, dosed 104 weeks, study length 104 weeks): 20300 mg/kg/day (inactive)
carcinogen call (rat, strain Osborne-Mendel, both sexes, in feed, site: any site (literature study), lesion: several types, types named in the paper, dosed 104 weeks, study length 104 weeks): negative (inactive)
TD50 (rat, strain Osborne-Mendel, both sexes, in feed, site: liver, lesion: adenoma, dosed 104 weeks, study length 104 weeks): 59800 mg/kg/day (inactive)
carcinogen call (rat, strain Sprague-Dawley, both sexes, in feed, site: any site (literature study), lesion: several types, types named in the paper, dosed 104 weeks, study length 104 weeks): negative (inactive)
TD50 (rat, strain Wistar, both sexes, in feed, site: abdomen, lesion: malignant lymphoma, dosed 91 weeks, study length 91 weeks): 6130 mg/kg/day
